# Laboratory results as given in US20260062443A1 (ALEXION PHARMACEUTICALS, INC., priority 2022, published 2026).
# Target: T1, Human complement C1s enzyme (Homo sapiens, UniProt P09871)
# T1 sequence (P09871 438-688 limits assumed): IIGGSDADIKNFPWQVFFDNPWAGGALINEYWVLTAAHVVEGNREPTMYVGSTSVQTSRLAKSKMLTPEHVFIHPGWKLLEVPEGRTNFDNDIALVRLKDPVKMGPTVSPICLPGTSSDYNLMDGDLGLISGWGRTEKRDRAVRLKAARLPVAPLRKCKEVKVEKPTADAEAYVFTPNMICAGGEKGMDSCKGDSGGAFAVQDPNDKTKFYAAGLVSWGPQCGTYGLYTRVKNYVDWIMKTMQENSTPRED
# T1 sequence (P09871 16-437 partner limits assumed): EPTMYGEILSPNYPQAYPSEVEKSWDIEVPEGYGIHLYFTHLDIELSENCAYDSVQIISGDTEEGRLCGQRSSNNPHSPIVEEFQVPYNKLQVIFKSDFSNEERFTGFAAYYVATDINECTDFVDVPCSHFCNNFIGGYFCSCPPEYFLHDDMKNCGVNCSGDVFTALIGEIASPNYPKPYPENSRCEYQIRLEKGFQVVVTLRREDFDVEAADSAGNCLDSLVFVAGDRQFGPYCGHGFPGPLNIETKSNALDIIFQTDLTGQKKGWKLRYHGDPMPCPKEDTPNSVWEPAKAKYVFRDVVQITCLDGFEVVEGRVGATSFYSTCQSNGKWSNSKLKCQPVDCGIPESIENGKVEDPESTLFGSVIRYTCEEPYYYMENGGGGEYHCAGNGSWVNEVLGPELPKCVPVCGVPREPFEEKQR
# Assay: Human C1s enzyme assay
# Format: biochemical
# Conditions: human complement C1s enzyme 1.16 nM, substrate Z-L-Lys-SBzl 100 μM, 5 min preincubation; read-out: IC50 (Stars), C1s Inhibiting Activity
# Method in brief: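 Serum-purified human C1s (1.16 nM final) preincubated 5 min at room temperature with compound in 50 mM Tris, 1 M NaCl, pH 7.5. Z-L-Lys-SBzl and DTNB added at 100 μM each; A405 followed every 30 s for 30 min, and IC50 obtained by nonlinear regression of reaction rates.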
row,Compound,IC50 [nM]
1,"C[C@@]12C[C@@H]1N(C(=O)CNC(=O)c1ccc(Oc3ccccc3)cc1)[C@H](C(=O)NCc1cc3cnccc3[nH]1)C2 [Compound 28, (1S,3S,5S)-N-((1H-pyrrolo[3,2-c]pyridin-2-yl)methyl)-5-methyl-2-((4-phenoxybenzoyl)glycyl)-2-azabicyclo[3.1.0]hexane-3-carboxamide]",< 100
2,"O=C(NCC(=O)N1C[C@@](F)(CF)C[C@H]1C(=O)NCc1cc2cnccc2[nH]1)c1ccc2c(c1)-c1ccccc1C2(F)F [Compound 6, (2S,4R)-N-((1H-pyrrolo[3,2-c]pyridin-2-yl)methyl)-1-((9,9-difluoro-9H-fluorene-3-carbonyl)glycyl)-4-fluoro-4-(fluoromethyl)pyrrolidine-2-carboxamide]",< 100
3,"O=C(NCC(=O)N1C[C@H](OC(F)F)C[C@H]1C(=O)NCc1cc2cnccc2[nH]1)c1ccc(F)c(Oc2ccsc2)c1 [Compound 317, (2S,4R)-4-(difluoromethoxy)-1-[2-[[4-fluoro-3-(3-thienyloxy)benzoyl]amino]acetyl]-N-(1H-pyrrolo[3,2-c]pyridin-2-ylmethyl)pyrrolidine-2-carboxamide]",< 100
4,"O=C(NCC(=O)N1CC2(C[C@H]1C(=O)NCc1cc3cnccc3[nH]1)OCCO2)c1ccc2c(c1)oc1ccccc12 [Compound 213, (S)-N-((1H-pyrrolo[3,2-c]pyridin-2-yl)methyl)-7-((dibenzo[b,d]furan-3-carbonyl)glycyl)-1,4-dioxa-7-azaspiro[4.4]nonane-8-carboxamide]",< 100
5,"O=C(NCC(=O)N1CC2(C[C@H]1C(=O)NCc1cc3cccnc3[nH]1)OCCO2)c1ccc2c(c1)-c1ccccc1C2(F)F [Compound 10, (S)-N-((1H-pyrrolo[2,3-b]pyridin-2-yl)methyl)-7-((9,9-difluoro-9H-fluorene-3-carbonyl)glycyl)-1,4-dioxa-7-azaspiro[4.4]nonane-8-carboxamide]",> 1000
6,"O=C(NCC(=O)N1C[C@H](OC(F)F)C[C@H]1C(=O)NCc1cc2cnccc2[nH]1)c1cccc(Oc2cc(F)ccc2F)c1 [Compound 295, (2S,4R)-N-((1H-pyrrolo[3,2-c]pyridin-2-yl)methyl)-4-(difluoromethoxy)-1-((3-(2,5-difluorophenoxy)benzoyl)glycyl) pyrrolidine-2-carboxamide]",< 100

# The next lines start with the values.
row,IC50 [nM],Compound
1,> 1000,"COc1ccc2[nH]c(CNC(=O)[C@@H]3CC4(CN3C(=O)CNC(=O)c3ccc5c(c3)Oc3ccccc3S5)OCCO4)cc2c1 [Compound 52, (S)-N-((5-methoxy-1H-indol-2-yl)methyl)-7-((phenoxathiine-3-carbonyl)glycyl)-1,4-dioxa-7-azaspiro[4.4]nonane-8-carboxamide]"
2,< 100,"O=C(NCC(=O)N1CC=C[C@H]1C(=O)NCc1cc2cnccc2[nH]1)c1ccc2c(c1)Oc1ccccc1S2 [Compound 261, (S)-N-((1H-pyrrolo[3,2-c]pyridin-2-yl)methyl)-1-((phenoxathiine-3-carbonyl)glycyl)-2,5-dihydro-1H-pyrrole-2-carboxamide]"
3,< 100,"COC[C@@H]1C[C@@H](C(=O)N[C@H](C)c2cc3cnccc3[nH]2)N(C(=O)CNC(=O)c2ccc3c(c2)Oc2ccccc2S3)C1 [Compound 149, (2S,4R)-N-((R)-1-(1H-pyrrolo[3,2-c]pyridin-2-yl)ethyl)-4-(methoxymethyl)-1-((phenoxathiine-3-carbonyl)glycyl)pyrrolidine-2-carboxamide]"
4,> 1000,"O=C(NCC(=O)N1C[C@H](OC(F)F)C[C@H]1C(=O)NCc1ccn2ccnc2c1)c1ccc2c(c1)Oc1ccccc1S2 [Compound 237, (2S,4R)-4-(difluoromethoxy)-N-(imidazo[1,2-a]pyridin-7-ylmethyl)-1-((phenoxathiine-3-carbonyl)glycyl)pyrrolidine-2-carboxamide]"
5,100 to 1000,"C[C@@H](NC(=O)[C@@H]1C[C@@H](S(C)(=O)=O)CN1C(=O)CNC(=O)c1ccc(Oc2ccc(F)cc2)cc1)c1cc2cnccc2[nH]1 [Compound 87, (2S,4R)-N-((R)-1-(1H-pyrrolo[3,2-c]pyridin-2-yl)ethyl)-1-((4-(4-fluorophenoxy)benzoyl)glycyl)-4-(methylsulfonyl)pyrrolidine-2-carboxamide]"
